What was measured:
Egr1 = assay: Immunoblot analysis of Egr1 expression in HEL cells; format: cell-based, human; conditions: 100 nM PMA plus 10 μM PD98059, 16 h
Procedure: The expression of WT1, Sp1, Egr1, NF-E2, GATA-1 and Ets-1 proteins in HEL cells was confirmed by western blot analysis. Briefly, whole cell protein was resolved by SDS-PAGE (10% acrylamide gels) and transferred to polyvinylidene difluoride (PVDF) membrane according to standard methodology. […] For PMA studies, HEL cells were pre-incubated for the indicated amount of time with 100 nM PMA, with 10 μM PD98059, with 100 nM PMA plus 10 μM PD98059 or, as a control, with vehicle [0.1% (v/v) DMSO]. Whole cell protein (60 μg per lane) was resolved by SDS-PAGE (10% acrylamide gels) and transferred to polyvinylidene difluoride (PVDF) membrane according to standard methodology.

[1] = tested on: Prm1-directed luciferase expression; assay: Effect of PMA, PD98059 or Vitamin D3 on Prm1-directed luciferase expression in HEL cells; format: cell-based, human; conditions: 100 nM PMA plus 10 μM PD98059, 16 h
Procedure: HEL and EA.hy 926 cells were co-transfected with the various pGL3Basic-recombinant plasmids (2 mg), encoding firefly luciferase, along with pRL-TK (200 ng), encoding renilla luciferase, using DMRIE-C® transfection reagent. HEK293, WI-38, and 1° hAoSMCs were co-transfected with the pGL3Basic-recombinant plasmids (2 mg), along with pRL-TK (200 ng), using Effectene transfection reagent. In all cases, cells co-transfected with pRL-TK (200 ng) in the presence of either the pGL3Control vector (firefly luciferase gene under the control of the SV40 promoter; 2 mg) or the promoter-less pGL3Basic empty vector (2 mg), which served as positive and negative controls, respectively. […] Relative firefly to renilla luciferase activity (arbitrary units) was calculated as a ratio and was expressed in relative luciferase units (RLU). To investigate the effect of over-expression of exon 5 (+ or −) or KTS (+ or −) isoforms of WT1 on Prm1-directed gene expression, HEL cells were co-transfected with either pGL3b:Prm1 or pGL3b:Prm1D (1.5 μg) plus 200 ng of pRL-TK along with either pcDNA3:WT1 (+/+), pcDNA3:WT1 (+/−), pcDNA3:WT1 (−/+), pcDNA3:WT1 (−/−) (0.5 μg), or as a control, pcDNA3 (0.5 μg). […] The plasmid pCMV5-NAB1, containing the entire coding sequence for NAB1, was generously donated by Dr. Gerald Thiel, University of Saarland Medical Center, Homburg, Germany, and has been described previously (Thiel et al., 2000). To investigate the effect of over-expression of NAB1 on the PMA-mediated induction of Prm1-directed gene expression, HEL cells were transiently co-transfected with pGL3b:Prm1 (2 μg) plus pRL-TK (200 ng) along with either pCMV5 (control) or pCMV:NAB1 (1 μg).

Prm3 = conditions: cited from earlier work
Prm1 = conditions: cited from earlier work

SMILES | Effect on PMA-induction of Egr1 protein expression (Egr1) | Effect on luciferase expression directed by the Prm1K sub-fragment [1] | PMA-induction of Prm1-directed luciferase expression in the presence of PD98059 ([1]; 4.3-fold with PMA alone) | Effect on transcriptional activity of Prm3 (Prm3) | Effect on Prm1 (Prm1)
COc1cccc(-c2cc(=O)c3ccccc3o2)c1N [PD98059, 2-(2-amino-3-methoxyphenyl)-4H-1-benzopyran-4-one] | completely abolished the PMA-induction of Egr1 protein expression | neither PMA alone (p=0.4721) nor PMA plus PD98059 (p=0.2693) had any significant effect | 2.3 fold | – | –
CCCCC/C=C/C=C1/C(=O)C=C[C@@H]1C/C=C\CCCC(=O)O [15d-PGJ2, 15-deoxy-Δ12,14-prostaglandin J2] | – | – | – | suppressed the transcriptional activity of Prm3 | had no effect on Prm1

Source: patent US20110269825A1, “Modified Thromboxane A2 Receptor Promoter Sequence” (priority 2008, published 2011)
